Results on three compounds are retold here after ChEMBL document CHEMBL2157998, “Synthesis and biological evaluation of new phenothiazine derivatives bearing a pyrazole unit as protein farnesyltransferase inhibitors” (Bioorg Med Chem Lett, 2012).

Active and inactive are the calls of the source. The calls are words filed in the database; no cut-off is given here.

For assay [1], the target named is T1, Protein farnesyltransferase (Homo sapiens, UniProt P49354+P49356). In words: Inhibition of recombinant human FTase using dansyl-GCVLS as substrate at 100 uM after 15 mins by fluorimetric analysis. It is filed as protein-complex assay.
Assay [2] concerns the target T1, Protein farnesyltransferase. Put plainly: Inhibition of recombinant human FTase using dansyl-GCVLS as substrate after 15 mins by fluorimetric analysis. Format: protein-complex assay.
Assay [3] relates to CCRF-CEM. Put plainly: Growth inhibition of human CCRF-CEM cells at 10 uM after 48 hrs by single dose SRB assay. Format: functional. On the technique in general: Sulforhodamine B stains cellular protein and so reports cell mass.
Assay [4] concerns HL-60(TB). In words: Growth inhibition of human HL-60(TB) cells at 10 uM after 48 hrs by single dose SRB assay. Format: functional.
For assay [5], the system named is RPMI-8226. In words: Growth inhibition of human RPMI8226 cells at 10 uM after 48 hrs by single dose SRB assay. Format: functional.
The test system of assay [6] is SF-295. In words: Growth inhibition of human SF295 cells at 10 uM after 48 hrs by single dose SRB assay. Format: functional. The note with it: SF-295, 48 h, read-out: GI.
The test system of assay [7] is SNB-19. In words: Growth inhibition of human SNB19 cells at 10 uM after 48 hrs by single dose SRB assay. It is filed as functional.
Assay [8] has as its system U-251. Put plainly: Growth inhibition of human U251 cells at 10 uM after 48 hrs by single dose SRB assay. It is filed as functional.
The subject of assay [9] is HCT166. In words: (§1) Growth inhibition of human […] cells at 10 uM after 48 hrs by single dose SRB assay. It is filed as functional.
In assay [10] the test system is HCT-15. Put plainly: Growth inhibition of human HCT15 cells at 10 uM after 48 hrs by single dose SRB assay. Format: functional.
For assay [11], the system named is HT-29. Put plainly: Growth inhibition of human HT-29 cells at 10 uM after 48 hrs by single dose SRB assay. Format: functional.
Assay [12] deals with SW-620. Put plainly: Growth inhibition of human SW620 cells at 10 uM after 48 hrs by single dose SRB assay. It is filed as functional.
Assay [13] has as its system EKVX. In words: Growth inhibition of human EKVX cells at 10 uM after 48 hrs by single dose SRB assay. Format: functional.
Assay [14] has as its system NCI-H226. Put plainly: Growth inhibition of human NCI-H226 cells at 10 uM after 48 hrs by single dose SRB assay. It is filed as functional.
Assay [15] deals with HOP-92. Put plainly: Growth inhibition of human HOP92 cells at 10 uM after 48 hrs by single dose SRB assay. It is filed as functional.
Assay [16] relates to NCI-H522. In words: Growth inhibition of human NCI-H522 cells at 10 uM after 48 hrs by single dose SRB assay. Format: functional.
Assay [17] concerns LOX IMVI. In words: Growth inhibition of human LOXIMVI cells at 10 uM after 48 hrs by single dose SRB assay. It is filed as functional.
In assay [18] the test system is SK-MEL-5. In words: Growth inhibition of human SK-MEL-5 cells at 10 uM after 48 hrs by single dose SRB assay. It is filed as functional.
Assay [19] concerns UACC-62. In words: Growth inhibition of human UACC62 cells at 10 uM after 48 hrs by single dose SRB assay. Format: functional.
The test system of assay [20] is ACHN. In words: Growth inhibition of human ACHN cells at 10 uM after 48 hrs by single dose SRB assay. It is filed as functional.
Assay [21] relates to SN12C. Put plainly: Growth inhibition of human SN12C cells at 10 uM after 48 hrs by single dose SRB assay. It is filed as functional.
For assay [22], the system named is A498. In words: Growth inhibition of human A498 cells at 10 uM after 48 hrs by single dose SRB assay. It is filed as functional. As to conditions: A498, 48 h, read-out: GI.
Assay [23] concerns CAKI-1. In words: Growth inhibition of human Caki1 cells at 10 uM after 48 hrs by single dose SRB assay. It is filed as functional.
Assay [24] has as its system UO-31. In words: Growth inhibition of human UO31 cells at 10 uM after 48 hrs by single dose SRB assay. The note with it: UO-31, 48 h, read-out: GI. It is filed as functional.
The test system of assay [25] is OVCAR-3. In words: Growth inhibition of human OVCAR3 cells at 10 uM after 48 hrs by single dose SRB assay. Format: functional.
Assay [26] deals with OVCAR-8. In words: Growth inhibition of human OVCAR8 cells at 10 uM after 48 hrs by single dose SRB assay. It is filed as functional. The note with it: OVCAR-8, 48 h, read-out: GI.
The test system of assay [27] is NCI/ADR-RES. Put plainly: Growth inhibition of human NCI/ADR-RES cells at 10 uM after 48 hrs by single dose SRB assay. It is filed as functional.
Assay [28] relates to PC-3. Put plainly: Growth inhibition of human PC3 cells at 10 uM after 48 hrs by single dose SRB assay. Format: functional. The note with it: PC-3, 48 h, read-out: GI.
For assay [29], the system named is MDA-MB-231. In words: Growth inhibition of human MDA-MB-231 cells at 10 uM after 48 hrs by single dose SRB assay. Format: functional.
The subject of assay [30] is MDA-MB-468. In words: Growth inhibition of human MDA-MB-468 cells at 10 uM after 48 hrs by single dose SRB assay. The note with it: MDA-MB-468, 48 h, read-out: GI. It is filed as functional.
Assay [31] deals with MOLT-4. Put plainly: Growth inhibition of human MOLT4 cells at 10 uM after 48 hrs by single dose SRB assay. The note with it: MOLT-4, 48 h, read-out: GI. It is filed as functional.
The nature of assay [32]: as §1. It is filed as functional. The note with it: read-out: GI.

As usually defined, the inhibition is the drop in the measured response relative to a control, in per cent. One may read the IC50 as the concentration needed to halve the response being measured. On to `N#Cc1cnn(CC(=O)N2c3ccccc3Sc3ccccc32)c1N`, for which the inhibition in [1] was determined as 94.9%. Moreover, the IC50 in [2] amounted to 17.2 µM. The “growth inhibition (GI)” value in assay [3], in assay [5], in assay [7], in assay [8], in assay [9] and in assay [10] was “inactive” each time. For the same compound, the “growth inhibition (GI)” value in assay [11], in assay [12], in assay [13], in [14], in assay [16] and in assay [17] was “inactive” each time. Moreover, the “growth inhibition (GI)” value in assay [18], in assay [19], in [20], in [21], in [23] and in assay [25] was “inactive” in each case. Also, the “growth inhibition (GI)” value in assay [27] and in assay [29] was “inactive” each time. The inhibition of growth at 10 µM in assay [4] (HL-60, 48 h, read-out: GI) was 46.2%; in assay [6] it was 13.1%; in assay [15] (HOP-92, 48 h, read-out: GI), 12.5%; in assay [22], 14%; in assay [24] it was 6.4%; in assay [26] it was 5.5%. Moreover, the inhibition of growth at 10 µM in [28] is 9.9%; in assay [30], 11.7%.
As for `C/C(=N\NC(=O)CCN1c2ccccc2Sc2ccccc21)C1=C(O)c2ccccc2C1=O`, the inhibition in [1] worked out at 95.5%. The half-maximal inhibitory concentration (IC50) in assay [2] came out at 3.73 µM.
For `Cc1c2c(nn1CC(=O)N1c3ccccc3Sc3ccccc31)-c1ccccc1C2=O`, in assay [1], the inhibition came to 67.7%. Also, in assay [2], the IC50 amounted to 3.35 µM. Besides, the inhibition of growth at 10 µM in assay [3] (read-out: GI) came to 12.1%; in assay [31], 25.4%; in assay [6], 35.8%; in [7] (SNB-19, 48 h, read-out: GI), 35.7%; in assay [8] (U-251, 48 h, read-out: GI), 24.8%; in [32], 55.7%. Also, the inhibition of growth at 10 µM in assay [10] (HCT-15, 48 h, read-out: GI) came to 23%; in assay [11] (HT-29, 48 h, read-out: GI) it was 17.7%; in assay [12] (SW-620, 48 h, read-out: GI) it was 23.8%; in assay [13] (read-out: GI) it was 39.9%; in [14] (NCI-H226, 48 h, read-out: GI), 25.3%; in assay [16] (NCI-H522, 48 h, read-out: GI), 9.6%. Also, the inhibition of growth at 10 µM in assay [17] (read-out: GI) came to 54.8%; in [18] (SK-MEL-5, 48 h, read-out: GI) it was 51.4%; in [19] (UACC-62, 48 h, read-out: GI) it was 31.2%; in assay [20] (read-out: GI), 29.7%; in [21] (read-out: GI), 34.8%; in [22], 19.4%. For the same compound, the inhibition of growth at 10 µM is 38.3% in assay [23] (CAKI-1, 48 h, read-out: GI); 29.5% in assay [24]; 29.7% in assay [25] (OVCAR-3, 48 h, read-out: GI); 28.2% in assay [26]; 33.5% in [27] (read-out: GI); 31% in assay [28]. For the same compound, the inhibition of growth at 10 µM in assay [29] (MDA-MB-231, 48 h, read-out: GI) is 27.8%; in assay [30] it was 37.6%. The “growth inhibition (GI)” value in assay [4], in assay [5] and in [15] was “inactive” in each case.
